pEC50: −log10 of the molar value. Where two headings read alike, the source gives them in different places.
Test system: Dkk1-LRP5-TCF-Luciferase
Assay: Functional Dkk1-LRP5-TCF-Luciferase Assay in U2OS Cells
Settings: for pEC50 / fold induction at 2 µM / fold induction at 20 µM: Homo sapiens, U2OS; for A = MAX FOLD Induction/DMSO CONTROL: maximum fold induction over DMSO control
[1] = read-out: B = TCF ACTIVITY/DMSO CONTROL Fold induction @ 2.0 uM, 2.0 uM compound
[2] = read-out: C = TCF ACTIVITY/DMSO CONTROL Fold induction @ 20.0 uM, 20.0 uM compound
[3] = read-out: B = TCF ACTIVITY/DMSO CONTROL Fold induction @ 2.0 uM
[4] = read-out: C = TCF ACTIVITY/DMSO CONTROL Fold induction @ 20.0 uM

SMILES | fold induction at 2 µM [1] | fold induction at 20 µM [2] | other results
NC(=O)N1CCC(Nc2nccc(-c3ccc4ccccc4c3)n2)CC1 [4-{[4-(2-naphthyl)pyrimidin-2-yl]amino}piperidine-1-carboxamide] | 1.31 | 3.17 | pEC50: 5.28; A = MAX FOLD Induction/DMSO CONTROL: 3.552 fold
O=CN1CCCN(Cc2nccc(-c3ccc4ccccc4c3)n2)CC1 [4-{[4-(2-naphthyl)pyrimidin-2-yl]methyl}-1,4-diazepane-1-carbaldehyde] | 1.15 | 1.13 | 
CN(c1nccc(-c2ccc3ccccc3c2)n1)C1CCN(C=O)CC1 [4-{methyl[4-(2-naphthyl)pyrimidin-2-yl]amino}piperidine-1-carbaldehyde] | 1.73 | 1.29 | 
CN(c1nccc(-c2ccc3ccccc3c2)n1)C1CCN(C(N)=O)CC1 [4-{methyl[4-(2-naphthyl)pyrimidin-2-yl]amino}piperidine-1-carboxamide] | 1.65 | 0.63 | 
CN(c1nccc(-c2ccc3ccccc3c2)n1)C1CCN(C(=N)N)CC1 [4-{methyl[4-(2-naphthyl)pyrimidin-2-yl]amino}piperidine-1-carboximidamide] | 1.74 |  | 
c1ccc2cc(-c3ccnc(N4CC5CCNC5C4)n3)ccc2c1 (centres unmarked) [5-(4-naphthalen-2-ylpyrimidin-2-yl)octahydropyrrolo[3,4-b]pyrrole] | 1.5 |  | 
CN(C)c1cccc2c(S(=O)(=O)N[C@H]3CC[C@H](Nc4nccc(-c5ccc6ccccc6c5)n4)CC3)cccc12 [5-(dimethylamino)-N-(trans-4-{[4-(2-naphthyl)pyrimidin-2-yl]amino}cyclohexyl)naphthalene-1-sulfonamide] | 1.43 | 1.34 | 
c1ccc2cc(-c3ccnc(N4CC[C@@H](N5CC6CCNC6C5)C4)n3)ccc2c1 (stereo partly drawn) [5-{(3R)-1-[4-(2-naphthyl)pyrimidin-2-yl]pyrrolidin-3-yl}octahydropyrrolo[3,4-b]pyrrole] | 2.2 |  | 
c1ccc2cc(-c3ccnc(N4CC[C@H](N5CC6CCNC6C5)C4)n3)ccc2c1 (stereo partly drawn) [5-{(3S)-1-[4-(2-naphthyl)pyrimidin-2-yl]pyrrolidin-3-yl}octahydropyrrolo[3,4-b]pyrrole] | 2.2 |  | 
NCC1CCN(c2nccc(-c3ccc4cc(O)ccc4c3)n2)CC1 [6-{2-[4-(aminomethyl)piperidin-1-yl]pyrimidin-4-yl}-2-naphthol] | 1.88 | 0.015 | 
c1ccc2cc(-c3ccnc(N4CCC5(CC4)OCCO5)n3)ccc2c1 [8-[4-(2-naphthyl)pyrimidin-2-yl]-1,4-dioxa-8-azaspiro[4.5]decane] |  |  | fold induction at 2 µM [3]: 1.5; fold induction at 20 µM [4]: 1.74
OCC1CCCN([C@@H]2CCN(c3nccc(-c4ccc5ccccc5c4)n3)C2)C1 (stereo partly drawn) [(1-{(3R)-1-[4-(2-naphthyl)pyrimidin-2-yl]pyrrolidin-3-yl}piperidin-3-yl)methanol] | 1.49 |  | 
OCC1CCN([C@@H]2CCN(c3nccc(-c4ccc5ccccc5c4)n3)C2)CC1 [(1-{(3R)-1-[4-(2-naphthyl)pyrimidin-2-yl]pyrrolidin-3-yl}piperidin-4-yl)methanol] | 1.69 | 0.01 | 
OCC1CCCN([C@H]2CCN(c3nccc(-c4ccc5ccccc5c4)n3)C2)C1 (stereo partly drawn) [(1-{(3S)-1-[4-(2-naphthyl)pyrimidin-2-yl]pyrrolidin-3-yl}piperidin-3-yl)methanol] | 1.88 | 0.01 | 
OCC1CCN([C@H]2CCN(c3nccc(-c4ccc5ccccc5c4)n3)C2)CC1 [(1-{(3S)-1-[4-(2-naphthyl)pyrimidin-2-yl]pyrrolidin-3-yl}piperidin-4-yl)methanol] | 1.72 | 0.94 | 
CC(C)(O)[C@H](N)C1CCN(c2nccc(-c3ccc4ccccc4c3)n2)CC1 [(1R)-1-amino-2-methyl-1-{1-[4-(2-naphthyl)pyrimidin-2-yl]piperidin-4-yl}propan-2-ol] | 1.78 |  | 
C[C@@H](N)C1CCN(c2nccc(-c3ccc4ccccc4c3)n2)CC1 [(1R)-1-{1-[4-(2-naphthyl)pyrimidin-2-yl]piperidin-4-yl}ethanamine] |  |  | pEC50: 6.06; A = MAX FOLD Induction/DMSO CONTROL: 2.280 fold
C[C@H](N)C1CCN(c2nccc(-c3ccc4ccccc4c3)n2)CC1 [(1S)-1-{1-[4-(2-naphthyl)pyrimidin-2-yl]piperidin-4-yl}ethanamine] |  |  | pEC50: 6.06; A = MAX FOLD Induction/DMSO CONTROL: 1.940 fold
CN1C[C@@H]2C[C@H]1CN2[C@@H]1CCN(c2nccc(-c3ccc4ccccc4c3)n2)C1 [(1S,4S)-2-methyl-5-{(3R)-1-[4-(2-naphthyl)pyrimidin-2-yl]pyrrolidin-3-yl}-2,5-diazabicyclo[2.2.1]heptane] | 1.5 |  | 
NCCN1CCN(c2nccc(-c3ccc4ccccc4c3)n2)CC1 [(2-{4-[4-(2-naphthyl)pyrimidin-2-yl]piperazin-1-yl}ethyl)amine] |  |  | fold induction at 2 µM [3]: 1; fold induction at 20 µM [4]: 1.79
N[C@@H](CO)C1CCN(c2nccc(-c3ccc4ccccc4c3)n2)CC1 [(2R)-2-amino-2-{1-[4-(2-naphthyl)pyrimidin-2-yl]piperidin-4-yl}ethanol] | 2.96 |  | A = MAX FOLD Induction/DMSO CONTROL: 1.660 fold
O[C@@H]1CCCN(CC2CCN(c3nccc(-c4ccc5ccccc5c4)n3)C2)C1 (stereo partly drawn) [(3R)-1-({1-[4-(2-naphthyl)pyrimidin-2-yl]pyrrolidin-3-yl}methyl)piperidin-3-ol] | 2.34 | 0.01 | pEC50: 5.99; A = MAX FOLD Induction/DMSO CONTROL: 3.745 fold
O[C@@H]1CCN(CC2CCN(c3nccc(-c4ccc5ccccc5c4)n3)C2)C1 (stereo partly drawn) [(3R)-1-({1-[4-(2-naphthyl)pyrimidin-2-yl]pyrrolidin-3-yl}methyl)pyrrolidin-3-ol] | 1.2 |  | 
N[C@@H]1CCN(c2nccc(-c3ccc4ccccc4c3)n2)C1 [(3R)-1-[4-(2-naphthyl)pyrimidin-2-yl]pyrrolidin-3-amine] | 1.62 | 0.01 | 
O[C@@H]1CCCN([C@@H]2CCN(c3nccc(-c4ccc5ccccc5c4)n3)C2)C1 [(3R)-1-{(3R)-1-[4-(2-naphthyl)pyrimidin-2-yl]pyrrolidin-3-yl}piperidin-3-ol] |  |  | pEC50: 5.66
O[C@@H]1CCCN([C@H]2CCN(c3nccc(-c4ccc5ccccc5c4)n3)C2)C1 [(3R)-1-{(3S)-1-[4-(2-naphthyl)pyrimidin-2-yl]pyrrolidin-3-yl}piperidin-3-ol] |  | 2.9 | 
O=CN1CC[C@@H](Nc2nccc(-c3ccc4ccccc4c3)n2)C1 [(3R)-3-{[4-(2-naphthyl)pyrimidin-2-yl]amino}pyrrolidine-1-carbaldehyde] | 1.03 | 2.69 | pEC50: 5.14; A = MAX FOLD Induction/DMSO CONTROL: 5.305 fold
NC(=O)N1CC[C@@H](Nc2nccc(-c3ccc4ccccc4c3)n2)C1 [(3R)-3-{[4-(2-naphthyl)pyrimidin-2-yl]amino}pyrrolidine-1-carboxamide] |  | 2.42 | pEC50: 5.06; A = MAX FOLD Induction/DMSO CONTROL: 5.295 fold
CN(C)[C@@H]1CCN(C[C@H]2CCN(c3nccc(-c4ccc5ccccc5c4)n3)C2)C1 [(3R)—N,N-dimethyl-1-({(3R)-1-[4-(2-naphthyl)pyrimidin-2-yl]pyrrolidin-3-yl}methyl)pyrrolidin-3-amine] | 2.24 | 0.02 | A = MAX FOLD Induction/DMSO CONTROL: 1.440 fold
